Results as given in US20080234262A1 (Wyeth, priority 2007, published 2008).

Tests used:
breast line MDA468 = assay: In vitro cell culture growth assay (MTS), MDA468; type: cell-based, human; conditions: MDA468 cells, three days after drug treatment
Protocol: Human tumor cell lines used include prostate lines LNCap and PC3MM2, breast lines MDA468, MCF7, renal line HTB44 (A498), colon line HCT116, and ovarian line OVCAR3. Cells were plated in 96-well culture plates. One day following plating, the inhibitors were added to cells. Three days after drug treatment, viable cell densities were determined by metabolic conversion (by viable cells) of the dye MTS, a well established cell proliferation assay. The assays were performed using an assay kit purchased from Promega Corp. (Madison, Wis.) following the protocol supplied with the kit. The MTS assay results were read in a 96-well plate reader by measuring absorbance at 490 nm. The effect of each treatment was calculated as percent of control growth relative to the vehicle-treated cells grown in the same culture plate.

prostate line LNCap = assay: In vitro cell culture growth assay (MTS), LNCap; type: cell-based, human; conditions: Homo sapiens, LNCaP, 72 h, LNCap cells, three days after drug treatment
PI3K = PI3K (Homo sapiens, UniProt P42336); assay: Fluorescence polarization assay for PI3K; type: biochemical; conditions: PI3Kα; read-out: PI3Kα IC50;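 note: PI3K kinase reaction on PIP2 with ATP, 30-60 min, product sensed by GST-GRP with red probe in fluorescence polarization (mP), controls without enzyme and at zero time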
Chain of PI3K (P42336 whole entry): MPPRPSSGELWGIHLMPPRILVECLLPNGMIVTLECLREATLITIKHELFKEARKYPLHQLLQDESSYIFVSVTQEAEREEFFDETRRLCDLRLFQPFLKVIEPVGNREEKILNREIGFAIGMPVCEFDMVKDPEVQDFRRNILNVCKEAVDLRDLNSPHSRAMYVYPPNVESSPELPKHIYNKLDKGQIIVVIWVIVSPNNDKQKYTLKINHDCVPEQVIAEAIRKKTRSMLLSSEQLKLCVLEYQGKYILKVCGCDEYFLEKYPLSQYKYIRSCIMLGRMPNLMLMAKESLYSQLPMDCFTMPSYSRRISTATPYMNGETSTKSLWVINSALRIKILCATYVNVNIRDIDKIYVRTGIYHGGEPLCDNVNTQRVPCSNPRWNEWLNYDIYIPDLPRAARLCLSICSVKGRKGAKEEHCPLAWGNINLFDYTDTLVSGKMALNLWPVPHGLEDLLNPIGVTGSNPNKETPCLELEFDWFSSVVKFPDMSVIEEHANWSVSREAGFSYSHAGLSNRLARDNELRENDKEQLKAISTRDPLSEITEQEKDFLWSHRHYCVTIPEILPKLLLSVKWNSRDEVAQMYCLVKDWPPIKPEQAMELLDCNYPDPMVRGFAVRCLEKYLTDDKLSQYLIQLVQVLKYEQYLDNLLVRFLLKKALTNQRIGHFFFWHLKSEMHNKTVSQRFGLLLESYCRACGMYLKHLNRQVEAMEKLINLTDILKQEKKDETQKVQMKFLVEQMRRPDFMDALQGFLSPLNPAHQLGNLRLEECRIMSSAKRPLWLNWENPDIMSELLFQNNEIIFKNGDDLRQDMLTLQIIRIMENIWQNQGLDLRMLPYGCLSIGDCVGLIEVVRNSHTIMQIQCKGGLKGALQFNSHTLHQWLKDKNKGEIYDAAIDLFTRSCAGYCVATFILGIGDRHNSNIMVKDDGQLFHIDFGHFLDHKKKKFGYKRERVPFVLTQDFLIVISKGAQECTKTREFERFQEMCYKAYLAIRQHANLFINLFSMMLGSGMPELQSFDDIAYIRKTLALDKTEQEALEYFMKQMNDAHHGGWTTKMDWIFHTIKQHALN
Chain of PI3K (P27986 whole entry partner): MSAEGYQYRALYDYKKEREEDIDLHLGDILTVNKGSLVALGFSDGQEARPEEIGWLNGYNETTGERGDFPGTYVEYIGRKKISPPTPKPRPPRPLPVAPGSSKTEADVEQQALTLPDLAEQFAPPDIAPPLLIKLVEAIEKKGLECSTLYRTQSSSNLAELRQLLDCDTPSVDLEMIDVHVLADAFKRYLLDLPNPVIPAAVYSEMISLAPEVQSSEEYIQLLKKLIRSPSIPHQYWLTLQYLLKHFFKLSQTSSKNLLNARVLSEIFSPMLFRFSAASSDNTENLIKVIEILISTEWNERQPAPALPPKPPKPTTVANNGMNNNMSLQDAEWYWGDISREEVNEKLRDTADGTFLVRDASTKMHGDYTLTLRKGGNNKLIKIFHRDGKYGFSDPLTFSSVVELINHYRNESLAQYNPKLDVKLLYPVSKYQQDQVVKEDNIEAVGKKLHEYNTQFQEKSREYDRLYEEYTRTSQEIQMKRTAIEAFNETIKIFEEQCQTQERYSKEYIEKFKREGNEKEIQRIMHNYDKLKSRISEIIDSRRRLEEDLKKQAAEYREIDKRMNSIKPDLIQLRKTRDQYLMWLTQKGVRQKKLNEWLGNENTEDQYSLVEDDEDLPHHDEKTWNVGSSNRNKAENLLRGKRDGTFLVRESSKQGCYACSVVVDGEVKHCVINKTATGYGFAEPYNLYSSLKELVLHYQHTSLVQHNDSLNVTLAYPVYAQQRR

| IC50 (prostate line LNCap) [nM] | IC50 (PI3K) [nM] | SMILES | IC50 (breast line MDA468; Homo sapiens, 72 h) [nM] | IC50 (breast line MDA468) [nM] |
| --- | --- | --- | --- | --- |
| 60000 |  | CC(=O)Nc1ccc(-c2nc(N3CCOCC3)c3cnn(-c4ccccc4)c3n2)cc1 [Compound 108, N-[4-(4-morpholin-4-yl-1-phenyl-1H-pyrazolo[3,4-d]pyrimidin-6-yl)phenyl]acetamide] | 60000 |  |
| 200 | 32 | O=C(Nc1ccc(-c2nc(N3CCOCC3)c3cnn(C4CCN(C(=O)c5cccnc5)CC4)c3n2)cc1)Nc1cccnc1 [Example 302, 1-(4-{4-morpholin-4-yl-1-[1-(pyridin-3-ylcarbonyl)piperidin-4-yl]-1H-pyrazolo[3,4-d]pyrimidin-6-yl}phenyl)-3-pyridin-3-ylurea] |  |  |
| 4500 |  | Nc1ccc(-c2nc(N3CCOCC3)c3cnn(C4CCN(Cc5ccccc5)CC4)c3n2)cc1 [Compound 79] | 10000 |  |
| 1000 |  | NCC(=O)Nc1ccc(-c2nc(N3CCOCC3)c3cnn(-c4ccccc4)c3n2)cc1 [Compound 136] | 400 |  |
| 35 | 15 | O=C(Nc1ccc(-c2nc(N3CCOCC3)c3cnn(C4CCN(C(=O)c5cccnc5)CC4)c3n2)cc1)Nc1cccs1 [Example 413, 1-(4-{4-morpholin-4-yl-1-[1-(pyridin-3-ylcarbonyl)piperidin-4-yl]-1H-pyrazolo[3,4-d]pyrimidin-6-yl}phenyl)-3-(2-thienyl)urea] |  |  |
| 27 | 35 | O=C(Nc1ccc(-c2nc(N3CCOCC3)c3cnn(C4CCN(C(=O)c5ccccc5)CC4)c3n2)cc1)Nc1cccnc1 [Example 379, 1-{4-[1-(1-benzoylpiperidin-4-yl)-4-morpholin-4-yl-1H-pyrazolo[3,4-d]pyrimidin-6-yl]phenyl}-3-pyridin-3-ylurea] |  |  |
| 27 | 454 | O=C(NCCF)Nc1ccc(-c2nc(N3CCOCC3)c3cnn(C4CCN(C(=O)c5ccccc5)CC4)c3n2)cc1 [Example 380, 1-{4-[1-(1-benzoylpiperidin-4-yl)-4-morpholin-4-yl-1H-pyrazolo[3,4-d]pyrimidin-6-yl]phenyl}-3-(2-fluoroethyl)urea] |  |  |
| 27 | 15 | O=C(Nc1ccncc1)Nc1ccc(-c2nc(N3CCOCC3)c3cnn(C4CCN(C(=O)c5cccnc5)CC4)c3n2)cc1 [Example 344, 1-(4-{4-morpholin-4-yl-1-[1-(pyridin-3-ylcarbonyl)piperidin-4-yl]-1H-pyrazolo[3,4-d]pyrimidin-6-yl}phenyl)-3-pyridin-4-ylurea] |  |  |
| 27 | 355 | CCNC(=O)Nc1ccc(-c2nc(N3CCOCC3)c3cnn(C4CCN(C(=O)c5ccccc5)CC4)c3n2)cc1 [Example 381, 1-{4-[1-(1-benzoylpiperidin-4-yl)-4-morpholin-4-yl-1H-pyrazolo[3,4-d]pyrimidin-6-yl]phenyl}-3-ethylurea] |  |  |
| 27 | 79 | CNC(=O)Nc1ccc(-c2nc(N3CCOCC3)c3cnn(C4CCN(C(=O)c5ccccc5Cl)CC4)c3n2)cc1 [Example 355, 1-(4-{1-[1-(2-chlorobenzoyl)piperidin-4-yl]-4-morpholin-4-yl-1H-pyrazolo[3,4-d]pyrimidin-6-yl}phenyl)-3-methylurea] |  |  |
|  |  | CNC(=O)Nc1ccc(-c2nc(N3CCOCC3)c3cnn(C4CCN(C(=O)OC(C)(C)C)CC4)c3n2)cc1 [Example 337, tert-butyl 4-(6-{4-[(methylcarbamoyl)amino]phenyl}-4-morpholin-4-yl-1H-pyrazolo[3,4-d]pyrimidin-1-yl)piperidine-1-carboxylate] | 300 |  |
|  |  | O=C(NCCO)Nc1ccc(-c2nc(N3CCOCC3)c3cnn(C4CCN(Cc5ccccc5)CC4)c3n2)cc1 [Example 265, 1-{4-[1-(1-benzylpiperidin-4-yl)-4-morpholin-4-yl-1H-pyrazolo[3,4-d]pyrimidin-6-yl]phenyl}-3-(2-hydroxyethyl)urea] | 100 |  |
| 27 | 73 | CNC(=O)Nc1ccc(-c2nc(N3CCOCC3)c3cnn(C4CCN(C(=O)c5cccc(C)c5)CC4)c3n2)cc1 [Example 366, 1-methyl-3-(4-{1-[1-(3-methylbenzoyl)piperidin-4-yl]-4-morpholin-4-yl-1H-pyrazolo[3,4-d]pyrimidin-6-yl}phenyl)urea] |  |  |
|  |  | CN(C)NC(=O)Nc1ccc(-c2nc(N3CCOCC3)c3cnn(C4CCN(Cc5ccccc5)CC4)c3n2)cc1 [Compound 290, N-{4-[1-(1-benzylpiperidin-4-yl)-4-morpholin-4-yl-1H-pyrazolo[3,4-d]pyrimidin-6-yl]phenyl}-2,2-dimethylhydrazinecarboxamide] | 8000 |  |
| 27 | 20 | O=C(Nc1ccc(-c2nc(N3CCOCC3)c3cnn(C4CCN(Cc5cccnc5)CC4)c3n2)cc1)Nc1cccnc1 [Example 314, 1-(4-{4-morpholin-4-yl-1-[1-(pyridin-3-ylmethyl)piperidin-4-yl]-1H-pyrazolo[3,4-d]pyrimidin-6-yl}phenyl)-3-pyridin-3-ylurea] |  |  |
|  |  | COC(=O)Nc1ccc(-c2nc(N3CCOCC3)c3cnn(C4CCN(Cc5cccnc5)CC4)c3n2)cc1 [Example 209, methyl (4-{4-morpholin-4-yl-1-[1-(pyridin-3-ylmethyl)piperidin-4-yl]-1H-pyrazolo[3,4-d]pyrimidin-6-yl}phenyl)carbamate] | 1500 |  |
|  |  | CNC(=O)Nc1ccc(-c2nc(N3CCOCC3)c3cnn(C4CCN(C(=O)OC(C)(C)C)CC4)c3n2)cc1 [Compound 583, tert-butyl 4-(6-{4-[(methylcarbamoyl)amino]phenyl}-4-morpholin-4-yl-1H-pyrazolo[3,4-d]pyrimidin-1-yl)piperidine-1-carboxylate] |  | 450 |
|  |  | O=C(Nc1ccc(-c2nc(N3CCOCC3)c3cnn(C4CCN(Cc5ccccc5)CC4)c3n2)cc1)NC1CC1 [Example 311, 1-{4-[1-(1-benzylpiperidin-4-yl)-4-morpholin-4-yl-1H-pyrazolo[3,4-d]pyrimidin-6-yl]phenyl}-3-cyclopropylurea] | 1100 |  |
|  |  | CN(C)CCNC(=O)Nc1ccc(-c2nc(N3CCOCC3)c3cnn(C4CCN(Cc5ccccc5)CC4)c3n2)cc1 [Compound 513, 1-{4-[1-(1-benzylpiperidin-4-yl)-4-morpholin-4-yl-1H-pyrazolo[3,4-d]pyrimidin-6-yl]phenyl}-3-[2-(dimethylamino)ethyl]urea] | 600 |  |
|  |  | COC(=O)N1CCC(n2ncc3c(N4CCOCC4)nc(-c4ccc(NC(=O)NCCF)cc4)nc32)CC1 [Compound 732, methyl 4-[6-(4-{[(2-fluoroethyl)carbamoyl]amino}phenyl)-4-morpholin-4-yl-1H-pyrazolo[3,4-d]pyrimidin-1-yl]piperidine-1-carboxylate] | 90 |  |
|  |  | COC(=O)N1CCC(n2ncc3c(N4CCOCC4)nc(-c4ccc(NC(=O)Nc5ccc(CCN6CCOCC6)cc5)cc4)nc32)CC1 [Compound 918, methyl 4-{4-morpholin-4-yl-6-[4-({[4-(2-morpholin-4-ylethyl)phenyl]carbamoyl}amino)phenyl]-1H-pyrazolo[3,4-d]pyrimidin-1-yl}piperidine-1-carboxylate] | 180 |  |
| 27 | 70 | CNC(=O)Nc1ccc(-c2nc(N3CCOCC3)c3cnn(C4CCN(C(=O)c5ccccc5)CC4)c3n2)cc1 [Example 336, 1-{4-[1-(1-benzoylpiperidin-4-yl)-4-morpholin-4-yl-1H-pyrazolo[3,4-d]pyrimidin-6-yl]phenyl}-3-methylurea] |  |  |
|  |  | O=C(NCCF)Nc1ccc(-c2nc(N3CCOCC3)c3cnn(C4CCN(Cc5ccccc5)CC4)c3n2)cc1 [Compound 534, 1-{4-[1-(1-benzylpiperidin-4-yl)-4-morpholin-4-yl-1H-pyrazolo[3,4-d]pyrimidin-6-yl]phenyl}-3-(2-fluoroethyl)urea] | 27.4 |  |
|  |  | CN(C)CCNC(=O)Nc1ccc(-c2nc(N3CCOCC3)c3cnn(C4CCN(Cc5ccccc5)CC4)c3n2)cc1 [Compound 268, 1-{4-[1-(1-benzylpiperidin-4-yl)-4-morpholin-4-yl-1H-pyrazolo[3,4-d]pyrimidin-6-yl]phenyl}-3-[2-(dimethylamino)ethyl]urea] | 600 |  |
|  |  | COC(=O)N1CCC(n2ncc3c(N4CCOCC4)nc(-c4ccc(NC(=O)Nc5ccc(N6CCN(C)CC6)cc5)cc4)nc32)CC1 [Compound 910, methyl 4-{6-[4-({[4-(4-methylpiperazin-1-yl)phenyl]carbamoyl}amino)phenyl]-4-morpholin-4-yl-1H-pyrazolo[3,4-d]pyrimidin-1-yl}piperidine-1-carboxylate] | 0.8 |  |
|  |  | CN(C)C(=O)Nc1ccc(-c2nc(N3CCOCC3)c3cnn(C4CCN(Cc5ccccc5)CC4)c3n2)cc1 [Compound 205] | 8000 |  |
| 27 | 338 | O=C(NCCF)Nc1ccc(-c2nc(N3CCOCC3)c3cnn(C4CCN(Cc5cccnc5)CC4)c3n2)cc1 [Example 315, 1-(2-fluoroethyl)-3-(4-{4-morpholin-4-yl-1-[1-(pyridin-3-ylmethyl)piperidin-4-yl]-1H-pyrazolo[3,4-d]pyrimidin-6-yl}phenyl)urea] |  |  |
| 27 | 187 | CCNC(=O)Nc1ccc(-c2nc(N3CCOCC3)c3cnn(C4CCN(Cc5cccnc5)CC4)c3n2)cc1 [Example 318, 1-ethyl-3-(4-{4-morpholin-4-yl-1-[1-(pyridin-3-ylmethyl)piperidin-4-yl]-1H-pyrazolo[3,4-d]pyrimidin-6-yl}phenyl)urea] |  |  |
|  |  | O=C(Nc1ccc(-c2nc(N3CCOCC3)c3cnn(C4CCN(Cc5ccccc5)CC4)c3n2)cc1)Nc1ncc[nH]1 [Compound 570, 1-{4-[1-(1-benzylpiperidin-4-yl)-4-morpholin-4-yl-1H-pyrazolo[3,4-d]pyrimidin-6-yl]phenyl}-3-(1H-imidazol-2-yl)urea] | 3500 |  |
